Measurements published in US6875752B2, “Uridine derivatives as antibiotics” (Aventis Pharma S.A., priority 2001, dated 2005).

How the values were obtained:
Experiment in all cases: Method of dilutions in a liquid medium (M.I.C.)
Format in all cases: cell-based
[1] = system: E. faecium; settings: E. faecium strains; incubation twenty-four hours at 37° C.; result in words only
Protocol: (§1) Detail of excipient starch, talc, magnesium stearate. Pharmacological Study of the Products of the Invention Method of Dilutions in a Liquid Medium
(§2) A series of tubes is prepared in which the same quantity of sterile nutritive medium is distributed. Increasing quantities of the product to be studied are distributed into each tube, then each tube is seeded with a bacterial strain. After incubation for twenty-four hours in a heating chamber at 37° C., the growth inhibition is evaluated by transillumination, which allows the minimal inhibitory concentrations (M.I.C.) to be determined, expressed in micrograms/cm^3.

[2] = system: S. aureus; settings: S. aureus strains; incubation twenty-four hours at 37° C.; result in words only
Protocol: as §1, §2

[3] = system: S. pyogenes; settings: S. pyogenes strains; incubation twenty-four hours at 37° C.; result in words only
Protocol: as §1, §2

Measured: activity (growth inhibition, minimal inhibitory concentrations M.I.C.)

CCCCCCCCCCCCCCCC(=O)NC[C@@H](O[C@@H]1O[C@H](CN)[C@@H](O)[C@H]1O)[C@@H]1C[C@@H](O)[C@H](n2ccc(=O)[nH]c2=O)O1 [Example 1, 1-[5-O-(5-amino-5-deoxy-β-D-ribofuranosyl)-3,6-dideoxy-6-[(1-oxohexadecyl)amino]-β-D-ribo-hexofuranosyl]-2,4-(1H,3H)-pyrimidinedione]
good activity: all assays above
